Measurements as given in patent US10968232B2 (Merck Sharp & Dohme Corp., priority 2016, dated 2021).

biological target: T1, human GPR40 (Homo sapiens, UniProt O14842); test: Inositol Phosphate Turnover (IP1) Assay; type: cell-based; details: HEK cells stably expressing human GPR40; CisBio IP-One kit; 60 minutes at 37 degrees; read-out: Human IP1 EC50
T1 construct: expressed in transfected cells
Method in brief: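 HEK cells stably expressing GPR40, plated 16 h, then exposed to compound in stimulation buffer for 60 min at 37 °C. IP1 accumulation read by HTRF IP-One detection after 60 min at RT.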

T1 sequence (O14842 whole entry): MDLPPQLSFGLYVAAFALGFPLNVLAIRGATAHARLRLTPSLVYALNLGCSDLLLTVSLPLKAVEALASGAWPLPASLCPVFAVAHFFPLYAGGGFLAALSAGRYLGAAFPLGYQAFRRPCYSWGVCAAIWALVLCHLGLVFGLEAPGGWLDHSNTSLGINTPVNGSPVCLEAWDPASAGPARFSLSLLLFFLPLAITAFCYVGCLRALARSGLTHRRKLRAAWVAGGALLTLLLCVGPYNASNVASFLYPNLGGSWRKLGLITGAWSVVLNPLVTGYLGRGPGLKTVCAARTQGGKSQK

Q: Which EC50 does the source give for `COc1cc(C(C)N2CCC3(CCc4ccc([C@H](C5CC5)[C@H](C)C(=O)O)cc4O3)CC2)c(C(F)(F)F)cn1` (single isomer, unassigned) [Example 107, sodium (2S,3R)-3-cyclo-propyl-3-(1′-((S or R)-1-(2-methoxy-5-(trifluoro-methyl)pyridin-4-yl)ethyl)spiro[chroman-2,4′-piperidin]-7-yl)-2-methylpropanoate] here?
A: Its EC50 is 2.12 nM.

Q: `CCCn1cc(-c2ccc(OC(F)(F)F)c(C(C)N3CCC4(CCc5ccc([C@H](C6CC6)[C@H](C)C(=O)O)cc5O4)CC3)c2)cn1` (single isomer, unassigned) [Example 113, sodium (2S,3R)-3-cyclopropyl-2-methyl-3-(1′-S or R)-1-(5-(1-propyl-1H-pyrazol-4-yl)-2-(trifluoromethoxy)phenyl)eth-yl)spiro[chroman-2,4′-piperidin]-7-yl)propanoate] was tested. Which EC50 did it give?
A: The EC50 was 579 nM.

Q: For `Cc1nocc1-c1ccc(OC(F)(F)F)c(C(C)N2CCC3(CCc4ccc([C@H](C5CC5)[C@H](C)C(=O)O)cc4O3)CC2)c1` (single isomer, unassigned) [Example 115, (2S,3R)-3-cyclopropyl-2-methyl-3-(1′-((R or S)-1-(5-(3-methylisoxazol-4-yl)-2-(trifluoromethoxy)phenyl)eth-yl)spiro[chroman-2,4′-piperidin]-7-yl)propanoic acid], which EC50 is on record?
A: Its EC50 is 41.7 nM.

Q: For `Cc1nocc1-c1ccc(OC(F)(F)F)c(C(C)N2CCC3(CCc4ccc([C@H](C5CC5)[C@H](C)C(=O)O)cc4O3)CC2)c1` (single isomer, unassigned) [Example 116, (2S,3R)-3-cyclopropyl-2-methyl-3-(1′-((R or S)-1-(5-(3-methylisoxazol-4-yl)-2-(trifluoromethoxy)phenyl)eth-yl)spiro[chroman-2,4′-piperidin]-7-yl)propanoic acid], which EC50 is on record?
A: Its EC50 is 323 nM.

Q: With `CC(c1cc(-c2ccoc2)ccc1OC(F)(F)F)N1CCC2(CCc3ccc([C@H](C4CC4)[C@H](C)C(=O)O)cc3O2)CC1` (single isomer, unassigned) [Example 117, (2S,3R)-3-cyclopropyl-3-(1′-((R or S)-1-(5-(furan-3-yl)-2-(trifluoro-methoxy)-phenyl)ethyl)spiro[chroman-2,4′-piperidin]-7-yl)-2-methylpropanoic acid] as the molecule, how does the EC50 read?
A: Its EC50 is 36.9 nM.

Q: How did the EC50 turn out when `CC(c1cc(-c2ccoc2)ccc1OC(F)(F)F)N1CCC2(CCc3ccc([C@H](C4CC4)[C@H](C)C(=O)O)cc3O2)CC1` (single isomer, unassigned) [Example 118, (2S,3R)-3-cyclopropyl-3-(1′-((S or R)-1-(5-(furan-3-yl)-2-(trifluoromethoxy)phenyl)ethyl)spiro[chroman-2,4′-piperidin]-7-yl)-2-methylpropanoic acid] was run?
A: The EC50 was 2.29 nM.

Q: How did the EC50 turn out when `CCc1[nH]c(C(=O)O)cc1-c1ccc(OC(F)(F)F)c(C(C)N2CCC3(CCc4ccc([C@H](C5CC5)[C@H](C)C(=O)O)cc4O3)CC2)c1` (single isomer, unassigned) [Example 120, 4-(3-((S or R)-1-(7-((1R,2S)-2-carboxy-1-cyclopropylpropyl)spiro[chro-man-2,4′-piperidin]-1′-yl)ethyl)-4-(trifluoro-methoxy)phenyl)-5-ethyl-1H-pyrrole-2-carboxylic acid] was run?
A: The EC50 was 501 nM.

Q: How did the EC50 turn out when `CCC(c1cc(C(F)(F)F)ccc1C(F)(F)F)N1CCC2(CCc3ccc([C@H](C4CC4)[C@H](C)C(=O)O)cc3O2)CC1` (stereo in doubt) [Example 9, (2S,3R)-3-(1′-((S)-1-(2,5-bis(trifluoromethyl)phenyl)propyl)spiro[chroman-2,4′-piperidin]-7-yl)-3-cyclopropyl-2-methylpropanoic Acid] was run?
A: The EC50 was 0.73 nM.

Q: How did the EC50 turn out when `CC(c1cc(F)ccc1OC(F)(F)F)N1CCC2(CCc3ccc([C@H](C4CC4)[C@H](C)C(=O)O)c(F)c3O2)CC1` (stereo partly drawn) [Example 2, (2S,3R)-3-cyclopropyl-3-(8-fluoro-1′-(1-(5-fluoro-2-(trifluoro-methoxy)phenyl)ethyl)-spiro[chroman-2,4′-piperidin]-7-yl)-2-methylpropanoic acid] was run?
A: The EC50 was 3.29 nM.

Q: How did the EC50 turn out when `C[C@H](C(=O)O)[C@H](c1ccc2c(c1F)OC1(CC2)CCN(Cc2cc(F)ccc2OC(F)(F)F)CC1)C1CC1` [Example 3, (2S,3R)-3-cyclopropyl-3-(8-fluoro-1′-(5-fluoro-2-(trifluoromethoxy)-benzyl)spiro[chroman-2,4′-piperidin]-7-yl)-2-methylpropanoic acid] was run?
A: The EC50 was 11.7 nM.

Q: `C[C@H](C(=O)O)[C@H](c1ccc2c(c1F)OC1(CC2)CCN(Cc2cc(Cl)ccc2OC(F)(F)F)CC1)C1CC1` [Example 4, (2S,3R)-3-(1′-(5-chloro-2-(trifluoromethoxy)benzyl)-8-fluorospiro[chroman-2,4′-piperidin]-7-yl)-3-cyclopropyl-2-methylpropanoic Acid] was tested. Which EC50 did it give?
A: Its EC50 is 8.06 nM.

Q: With `C[C@H](C(=O)O)[C@H](c1ccc2c(c1F)OC1(CC2)CCN([C@H](C)c2cc(C(F)(F)F)ccc2C(F)(F)F)CC1)C1CC1` [Example 6, (2S,3R)-3-(1′-((R)-1-(2,5-bis(trifluoromethyl)-phenyl)ethyl)-8-fluoro-spiro[chroman-2,4′-piperidin]-7-yl)-3-cyclo-propyl-2-methyl-propanoic acid] as the molecule, how does the EC50 read?
A: The EC50 was 12.1 nM.

Q: With `CC[C@@H](c1cc(C(F)(F)F)ccc1C(F)(F)F)N1CCC2(CCc3ccc([C@H](C4CC4)[C@H](C)C(=O)O)cc3O2)CC1` [Example 7, sodium (2S,3R)-3-(1′-((S)-1-(2,5-bis(trifluoro-methyl)phenyl)propyl)-spiro[chroman-2,4′-piperidin]-7-yl)-3-cyclo-propyl-2-methyl-propanoic acid] as the molecule, how does the EC50 read?
A: The EC50 was 2.14 nM.

Q: How did the EC50 turn out when `C[C@H](C(=O)O)[C@H](c1ccc2c(c1F)OC1(CC2)CCN(Cc2cc(C(F)(F)F)ccc2C(F)(F)F)CC1)C1CC1` [Example 8, (2S,3R)-3-(1′-(2,5-bis-(trifluoromethyl)benzyl)-8-fluoro-spiro[chroman-2,4′-piperidin]-7-yl)-3-cyclopropyl-2-methyl-propanoic acid] was run?
A: Its EC50 is 20.6 nM.

Q: `C[C@H](C(=O)O)[C@H](c1ccc2c(c1F)OC1(CC2)CCN(Cc2cc(Cl)ccc2OC(F)F)CC1)C1CC1` [Example 20, (2S,3R)-3-(1′-(5-chloro-2-(difluoromethoxy)benzyl)-8-fluorospiro[chroman-2,4′-piperidin]-7-yl)-3-cyclopropyl-2-methylpropanoic Acid] was tested. Which EC50 did it give?
A: The EC50 was 13.5 nM.

Q: With `CC(c1cc(Cl)ccc1OC(F)(F)F)N1CCC2(CCc3ccc([C@H](C4CC4)[C@H](C)C(=O)O)c(F)c3O2)CC1` (stereo partly drawn) [Example 21, (2S,3R)-3-(1′-(1-(5-chloro-2-(trifluoromethoxy)phenyl)ethyl)-8-fluorospiro[chroman-2,4′-piperidin]-7-yl)-3-cyclopropyl-2-methylpropanoic Acid] as the molecule, how does the EC50 read?
A: Its EC50 is 3.66 nM.

Q: How did the EC50 turn out when `C[C@H](C(=O)O)[C@H](c1ccc2c(c1)OC1(CC2)CCN(c2cccnc2C(F)(F)F)CC1)C1CC1` [Example 22, sodium (2S,3R)-3-cyclopropyl-2-methyl-3-(1′-(2-(trifluoromethyl)pyridin-3-yl)spiro[chroman-2,4′-piperidin]-7-yl)propanoate] was run?
A: The EC50 was 38.3 nM.

Q: For `C[C@H](C(=O)O)[C@H](c1ccc2c(c1)OC1(CC2)CCN(S(=O)(=O)c2cc(C(F)(F)F)ccc2C(F)(F)F)CC1)C1CC1` [Example 23, (2S,3R)-3-(1′-((2,5-bis(trifluoromethyl)phenyl)sulfonyl)spiro[chroman-2,4′-piperidin]-7-yl)-3-cyclopropyl-2-methylpropanoic Acid], which EC50 is on record?
A: The EC50 was 14.3 nM.

Q: With `C[C@H](C(=O)O)[C@H](c1ccc2c(c1)OC1(CC2)CCN(Cc2cc(C(F)(F)F)cc(Cl)c2F)CC1)C1CC1` [Example 24, (2S,3R)-3-(1′-(3-chloro-2-fluoro-5-(trifluoromethyl)benzyl)spiro[chroman-2,4′-piperidin]-7-yl)-3-cyclopropyl-2-methylpropanoic Acid] as the molecule, how does the EC50 read?
A: The EC50 was 11.2 nM.

Q: Which EC50 does the source give for `C[C@H](C(=O)O)[C@H](c1ccc2c(c1)OC1(CC2)CCN(S(=O)(=O)c2cc(C(F)(F)F)ccc2Cl)CC1)C1CC1` [Example 25, (2S,3R)-3-(1′-((2-chloro-5-(trifluoromethyl)phenyl)sulfonyl)spiro[chroman-2,4′-piperidin]-7-yl)-3-cyclopropyl-2-methylpropanoic Acid] here?
A: Its EC50 is 18.3 nM.

Q: `C[C@H](C(=O)O)[C@H](c1ccc2c(c1)OC1(CC2)CCN(S(=O)(=O)c2ccc(C(F)(F)F)cc2Cl)CC1)C1CC1` [Example 26, (2S,3R)-3-(1′-((2-chloro-4-(trifluoromethyl)-phenyl)sulfonyl)spiro [chroman-2,4′-piperidin]-7-yl)-3-cyclopropyl-2-methylpropanoic acid] was tested. Which EC50 did it give?
A: Its EC50 is 97.8 nM.

Q: `C[C@H](C(=O)O)[C@H](c1ccc2c(c1)OC1(CC2)CCN(Cc2cc(C(F)(F)F)ccc2F)CC1)C1CC1` [Example 27, (2S,3R)-3-cyclopropyl-3-(1′-(2-fluoro-5-(trifluoromethyl)benzyl)spiro-[chroman-2,4′-piperidin]-7-yl)-2-methylpropanoic Acid] was tested. Which EC50 did it give?
A: The EC50 was 49.5 nM.

Q: How did the EC50 turn out when `C[C@H](C(=O)O)[C@H](c1ccc2c(c1)OC1(CC2)CCN(Cc2nc(C(F)(F)F)ccc2Cl)CC1)C1CC1` [Example 32, (2S,3R)-3-(1′-((3-chloro-6-(trifluoromethyl)-pyridin-2-yl)methyl)-spiro-[chroman-2,4′-piperidin]-7-yl)-3-cyclopropyl-2-methylpropanoic acid] was run?
A: Its EC50 is 177 nM.

Q: Which EC50 does the source give for `C[C@H](C(=O)O)[C@H](c1ccc2c(c1)OC1(CC2)CCN(c2ccccc2C(F)(F)F)CC1)C1CC1` [Example 35, sodium (2S,3R)-3-cyclopropyl-2-methyl-3-(1′-(2-(trifluoromethyl)phenyl)-spiro[chroman-2,4′-piperidin]-7-yl)propanoate] here?
A: The EC50 was 5.79 nM.

same assay, conditions: Human IP1 EC50 (nM), HEK cells stably expressing human GPR40; CisBio IP-One kit; 60 minutes at 37 degrees

Q: Which EC50 does the source give for `CC(c1cc(C(F)(F)F)cc(Cl)c1F)N1CCC2(CCc3ccc([C@H](C4CC4)[C@H](C)C(=O)O)cc3O2)CC1` (single isomer, unassigned) [Example 108, (2S,3R)-3-(1′-((R or S)-1-(3-chloro-2-fluoro-5-(trifluoromethyl)phenyl)ethyl)spiro-[chroman-2,4′-piperidin]-7-yl)-3-cyclopropyl-2-methylpropanoic Acid] here?
A: The EC50 was 15.8 nM.
